Assay results: US20200024315A1, “ANTIMICROBIAL PEPTIDES AND METHODS OF TREATING GRAM-NEGATIVE PATHOGENS” (THE REGENTS OF THE UNIVERSITY OF COLORADO, a body corporate, priority 2017, published 2020)
Square brackets hold non-standard residues; d marks the D form. Orn = NCCC[C@H](N)C(=O)O

Experiments:
[1] = Circular dichroism (CD) spectroscopy, characterization of helical structure; assay type: physicochemical; conditions: for α-helical content (% helix) in aqueous conditions: aqueous benign buffer pH 7.0, 5° C.; for helical structure in hydrophobic medium containing 50% TFE: buffer pH 7.0 / 50% TFE, 5° C.; for inducible helical structure Δ[Θ]222 nm TFE-Aqueous: difference 50% TFE minus aqueous buffer
Description: The mean residue molar ellipticities of peptides were determined by circular dichroism (CD) spectroscopy, using a Jasco J-815 spectropolarimeter (Jasco Inc. Easton, Md., USA) at 5° C. under benign (non-denaturing) conditions (50 mM NaH2PO4/Na2HPO4/100 mM KCl, pH 7.0), hereafter referred to as benign buffer, as well as in the presence of an alpha-helix inducing solvent, 2,2,2-trifluoroethanol, TFE, (50 mM NaH2PO4/Na2HPO4/100 mM KCl, pH 7.0 buffer/50% TFE). A 10-fold dilution of an approximately 500 microM stock solution of the peptide analogs was loaded into a 0.1 cm quartz cell and its ellipticity scanned from 195 to 250 nm. Peptide concentrations were determined by amino acid analysis.

[2] = Temperature profiling in RP-HPLC (peptide self-association); assay type: physicochemical; conditions: RP-HPLC pH 2, 5° C.-77° C., maximum change in retention time relative to random coil standards
Source text: Peptide self-association, the ability to oligomerize/dimerize in aqueous solution, is an important parameter that can improve antimicrobial activity while removing toxicity. The inventors hypothesize that the monomeric random-coil antimicrobial peptides in aqueous solution are best suited to pass through a polysaccharide capsule, the outer membrane lipopolysaccharide and the cell wall peptidoglycan layer of microorganisms prior to penetration into the cytoplasmic membrane, induction of alpha-helical structure and disruption of membrane structure to kill target cells. […] In the present study, the ability of the AMPs to self-associate was determined by a technique developed in the inventors' laboratory, referred to as RP-HPLC temperature profiling at pH 2 over the temperature range of 5° C. to 80° C. […]
Purified peptides were analyzed on an Agilent 1200 series liquid chromatograph for temperature profiling using a Zorbax 300 SB-C8 column (150 mm×2.1 mm I.D.; 5 μm particle size, 300 Å pore size) from Agilent Technologies. […]
FIGS. 5-8 illustrate self-association profiles of the α-helical AMP analogs as determined by temperature profiling in RP-HPLC. […]

[3] = test system: A. baumannii compared to P. aeruginosa; assay: Selectivity (MICGM P. aeruginosa/MICGM A. baumannii); assay type: cell-based, Acinetobacter baumannii
human erythrocytes = assay: Hemolytic activity against human erythrocytes; assay type: cell-based; conditions: 1% human erythrocytes, 18 h, 37° C.
Description: Peptide samples (concentrations determined by amino acid analysis) were added to 1% human erythrocytes in phosphate-buffered saline (100 mM NaCl, 80 mM Na2HPO4, 20 mM NaH2PO4, pH 7.4) and the reaction mixtures were incubated at 37° C. for 18 h in microtiter plates. Two-fold serial dilutions of the peptide samples were carried out. This determination was made by withdrawing aliquots from the hemolysis assays and removing unlysed erythrocytes by centrifugation (800×g). Hemoglobin release was determined spectrophotometrically at 570 nm. The control for 100% hemolysis was a sample of erythrocytes treated with water. The control for no release of hemoglobin was a sample of 1% erythrocytes without any peptide added. Since erythrocytes were in an isotonic medium, no detectable release (<1% of that released upon complete hemolysis) of hemoglobin was observed from this control during the assay. The hemolytic activity is generally determined as the peptide concentration that causes 50% hemolysis of erythrocytes after 18 h (HC50). HC50 was determined from a plot of percent lysis versus peptide concentration (microM). If 50% hemolysis could not be reached, the inventors used HC30 values (30% hemolysis).

Pseudomonas aeruginosa = assay: Antimicrobial activity against Pseudomonas aeruginosa; assay type: cell-based
Description: In the current study de novo designed AMPs were tested against seven diverse clinical isolates of the Gram-negative pathogen A. baumannii and seven A. baumannii strains resistant to polymyxin B and polymyxin E (Colistin). In addition, the inventors tested these AMPs against six diverse clinical isolates of the Gram-negative pathogen, P. aeruginosa, and nine Gram-positive methicillin-sensitive S. aureus clinical isolates and eight Gram-positive methicillin/oxacillin-resistant S. aureus strains. This testing allows for the determination of pathogen selectivity between Gram-negative and Gram-positive pathogens as the location of the positively charged residues on the polar face is varied.
The minimal inhibitory concentration (MIC) is defined as the lowest peptide concentration that inhibited bacterial growth. MICs were measured by a standard microtiter dilution method in Mueller Hinton (MH) medium. Briefly, cells were grown overnight at 37° C. in MH broth and were diluted in the same medium. Serial dilutions of the peptides were added to the microtiter plates in a volume of 50 microL, followed by the addition of 50 microL of bacteria to give a final inoculum of 5×10^5 colony-forming units (CFU)/mL. The plates were incubated at 37° C. for 24 h, and the MICs were determined.

D26 (K13A, K16A) = assay: RP-HPLC temperature profiling 5-77 C, pH 2; self-association (monomer-dimer) of the peptide
D52 = assay: as above

Molecule: Ac-ALKKLLSTLSSAKSSKLSTLLKALKK-amide (Ac-ALKKLLSTLSSAKSSKLSTLLKALKK-NH2) [D52]
- α-helical content (% helix) in aqueous conditions [1]: 13.7%
- helical structure in hydrophobic medium containing 50% TFE [1]: 100%
- inducible helical structure Δ[Θ]222 nm TFE-Aqueous [1]: 1422
- peptide self-association parameter PA [2]: 7.78 min

Molecule: Ac-ALKKLLSTLSSARSSRLSTLLKALKK-NH2 [D58]
- α-helical content (% helix) in aqueous conditions [1]: 7.2%
- inducible helical structure Δ[Θ]222 nm TFE-Aqueous [1]: 750

Molecule: Ac-ALKKLLSTLSSA[Orn]SS[Orn]LSTLLKALKK-NH2 [D56]
- α-helical content (% helix) in aqueous conditions [1]: 3.5%
- helical structure in hydrophobic medium containing 50% TFE [1]: 27.2%

Molecule: Ac-AL[Orn][Orn]LLSTLSSAKSSKLSTLL[Orn]AL[Orn][Orn]-NH2 [D59]
- α-helical content (% helix) in aqueous conditions [1]: 6.9%
- inducible helical structure Δ[Θ]222 nm TFE-Aqueous [1]: 1061

Molecule: Ac-KLKSLLKTLSKAKKKKLKTLLKALSK-NH2 [D16, reference compound]
- selectivity factor (MICGM P. aeruginosa/MICGM A. baumannii) [3]: 2.7

Molecule: Ac-KLKSLLSTLSSAAKKALSTLLSALSK-NH2 [D26 (K13A, K16A)]
- helical structure in aqueous buffer conditions (in words) ([1]; 50 mM potassium phosphate buffer, pH 7.0, 100 mM KCl): α-helical

Molecule: Ac-KLKSLLSTLSSAKKKKLSTLLSALSK-NH2 [D26]
- α-helical content (% helix) in aqueous conditions [1]: 8.9%
- hemolytic activity HC50 (human erythrocytes): > 1776 µM
- improvement in selectivity (MICGM P. aeruginosa/MICGM A. baumannii) [3]: 25 fold
- activity against Pseudomonas aeruginosa (in words) (Pseudomonas aeruginosa): inactive

B1: D26 (K13A, K16A) (peptide)
chain: Ac-[dK][dL][dK][dS][dL][dL][dS][dT][dL][dS][dS][dA][dA][dK][dK][dA][dL][dS][dT][dL][dL][dS][dA][dL][dS][dK]-NH2
- PA (peptide self-association parameter) (D26 (K13A, K16A)): 27 min

B2: D52 (peptide)
chain: Ac-[dA][dL][dK][dK][dL][dL][dS][dT][dL][dS][dS][dA][dK][dS][dS][dK][dL][dS][dT][dL][dL][dK][dA][dL][dK][dK]-NH2
SMILES: CC(=O)N[C@H](C)C(=O)N[C@H](CC(C)C)C(=O)N[C@H](CCCCN)C(=O)N[C@H](CCCCN)C(=O)N[C@H](CC(C)C)C(=O)N[C@H](CC(C)C)C(=O)N[C@H](CO)C(=O)N[C@@H](C(=O)N[C@H](CC(C)C)C(=O)N[C@H](CO)C(=O)N[C@H](CO)C(=O)N[C@H](C)C(=O)N[C@H](CCCCN)C(=O)N[C@H](CO)C(=O)N[C@H](CO)C(=O)N[C@H](CCCCN)C(=O)N[C@H](CC(C)C)C(=O)N[C@H](CO)C(=O)N[C@@H](C(=O)N[C@H](CC(C)C)C(=O)N[C@H](CC(C)C)C(=O)N[C@H](CCCCN)C(=O)N[C@H](C)C(=O)N[C@H](CC(C)C)C(=O)N[C@H](CCCCN)C(=O)N[C@H](CCCCN)C(N)=O)[C@H](C)O)[C@H](C)O
- PA (peptide self-association parameter) (D52): 7.78 min
